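All cell lines were grown in 96-well plates and treated with compound for 48 hours. GI50 is the concentration that inhibits growth by half. TGI: total growth inhibition.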
Columns and labels:
Experiment in all cases: NCI anticancer screen, dose series, 48 h
HCT-116 colon = system: HCT-116 colon
HCT-15 colon = system: HCT-15 colon
HL-60(TB) leukemia = system: HL-60(TB) leukemia
MDA-MB-435 = system: MDA-MB-435
OVCAR-3 ovarian = system: OVCAR-3 ovarian
RPMI-8226 leukemia = system: RPMI-8226 leukemia
SF-268 CNS = system: SF-268 CNS
T-47D breast = system: T-47D breast
NCI/ADR-RES ovarian = system: NCI/ADR-RES ovarian
MALME-3M melanoma = system: MALME-3M melanoma

Structure (SMILES) | TGI (HCT-116 colon) | TGI (HCT-15 colon) | TGI (HL-60(TB) leukemia) | TGI (MDA-MB-435) | TGI (OVCAR-3 ovarian) | TGI (RPMI-8226 leukemia) | TGI (SF-268 CNS) | TGI (T-47D breast) | TGI (NCI/ADR-RES ovarian) | TGI (MALME-3M melanoma) | GI50 (HL-60(TB) leukemia)
C[C@H]1S[C@H](c2c(Cl)cccc2Cl)N2Cc3ccccc3N=C12 | 16.3 µM | 33.7 µM | > 100 µM | > 100 µM | 26.9 µM | > 100 µM | 32.5 µM | 36.4 µM |  |  | 
Cc1ccccc1NC(=O)Cc1csc2[n+]1C(=O)/C(=C/c1ccc([N+](=O)[O-])cc1)S2 | > 100 µM | > 100 µM | > 100 µM | > 100 µM | > 100 µM |  |  | > 100 µM | > 100 µM |  | 
CC(C)(C)OC(=O)NCCCCC(NC(=O)c1ccccc1)C(N)=O (configuration not stated) | > 100 µM | > 100 µM |  | > 100 µM | > 100 µM | > 100 µM | > 100 µM | > 100 µM | > 100 µM | > 100 µM | 
CCc1ccccc1NNc1cc(=O)[nH]c(=O)[nH]1 | 31.1 µM |  | > 100 µM | 34.1 µM | 30.8 µM | > 100 µM |  | 37.7 µM | > 100 µM |  | 
NNC(=O)c1cc(=O)[nH][nH]1 | > 100 µM | > 100 µM |  | > 100 µM |  | > 100 µM | > 100 µM | > 100 µM | > 100 µM | > 100 µM | 
CC(=O)N1CCn2c1nc1cc(Cl)ccc12 | > 100 µM | > 100 µM | > 100 µM | > 100 µM | > 100 µM |  | > 100 µM | 51.4 µM | > 100 µM | > 100 µM | 
CC(=O)N(O)c1ccc(-c2nc3ccccc3s2)cc1 | > 100 µM | > 100 µM |  | > 100 µM | > 100 µM | > 100 µM | > 100 µM | > 100 µM | > 100 µM | 88.9 µM | 
C[Si](C)(c1ccccc1)[C@H]1CCCC=C1CCNC1c2ccccc2CCc2ccccc21 | > 100 µM | > 100 µM |  | > 100 µM | > 100 µM | > 100 µM | > 100 µM | > 100 µM | > 100 µM | > 100 µM | 
COc1cccc(/C=N/[N-]C(N)=O)c1[O-].[Cu+2].[OH3+].c1ccc(-c2ccccn2)nc1 | > 63 µM | > 100 µM | > 79.1 µM |  | > 100 µM | > 100 µM | > 100 µM |  |  | > 100 µM | 40.6 µM
C=CCOCn1cc(C)c(=O)[nH]c1=O | > 100 µM | > 100 µM | > 100 µM | > 100 µM |  | > 100 µM | > 100 µM | > 100 µM |  | > 100 µM | 
CN(C)CCNC(=O)c1cccc2c1Oc1c(cccc1[N+](=O)[O-])O2 | 3.4 µM | 3.89 µM | > 100 µM | 14.4 µM | 13.1 µM | > 100 µM | 12.2 µM | 1.93 µM |  | 3.88 µM | 
CN1c2ccccc2N(C(=O)c2ccccc2)C(CC(=O)O)c2cccn21 (configuration not stated) |  | > 100 µM | > 100 µM |  | > 100 µM | > 100 µM | > 100 µM |  |  | > 100 µM | 

From PubChem BioAssay (NCI)
